Entries after “also recorded” stand apart in the source; their conditions may differ.
Assays:
[1] = system: luciferase RNA containing a UGA premature termination codon; assay: in vitro translation nonsense suppression assay in HeLa cell extract; type: biochemical, human; settings: FIG. 4
Method: This Example describes a method of preparing a cell extract to perform in vitro translation reactions to monitor nonsense suppression or to produce proteins in vitro. This method is different from other methods used to prepare translation extracts for several reasons.
HeLa S3 cells were grown to a density of 10^6 cells/ml in DMEM; 5% CO2, 10% FBS, 1×P/S in a spinner flask. Cells were harvested by spinning at 1000×g. Cells were washed twice with phosphate buffered saline. The cell pellet sat on ice for 12 to 24 hours before proceeding. By letting the cells sit on ice, the activity of the extract is increased two-fold. The length of time on ice can range from 0 hours to 1 week. The cells were resuspended in 1.5 volumes (packed cell volume) of hypotonic buffer (10 mM HEPES (KOH) pH 7.4; 15 mM KCl; 1.5 mM Mg(OAc)2; 0.5 mM Pefabloc (Roche); 2 mM DTT). Cells were allowed to swell for 5 minutes on ice and dounce homogenized with 10 to 100 strokes using a tight-fitting pestle. The cells were spun for 10 minutes at 12000×g at 4° C. in a Sorvall SS-34 rotor. […]
Further, in the presence of the aminoglycoside gentamicin, nonsense suppression activity (as measured by the amount of luciferase activity produced from a luciferase RNA containing a UGA premature termination codon) is increased 2 to 3 fold above untreated extracts (see FIG. 4). […]

[2] = system: mRNA containing a UGA premature termination codon; assay: biochemical assay: rabbit reticulocyte lysate and nonsense-containing luciferase reporter mRNA
Source text: (§1) Two assays were developed for use in high throughput screens to identify small molecules that promote nonsense suppression. Each assay utilized luciferase because it is a functional reporter gene assay (light is only produced if the protein is functional) and it is extremely sensitive (Light intensity is proportional to luciferase concentration in the nM range). The first assay was a cell-based luciferase reporter assay and the second was a biochemical assay consisting of rabbit reticulocyte lysate and a nonsense-containing luciferase reporter mRNA. In the cell-based assay, a luciferase reporter construct containing a UGA premature termination codon was stably transfected in 293T Human Embryonic Kidney cells. In the biochemical assay, mRNA containing a UGA premature termination codon was used as a reporter in an in vitro translation reaction using rabbit reticulocyte lysate supplemented with tRNA, hemin, creatine kinase, amino acids, KOAc, Mg(OAc)2, and creatine phosphate. […] Synthetic mRNA was prepared in vitro using the T7 promoter and the MegaScript in vitro transcription kit (Ambion).

[3] = system: luciferase reporter construct containing a UGA premature termination codon in 293T Human Embryonic Kidney cells; assay: cell-based luciferase reporter assay, stable cell line
Source text: as §1
Compound A and Compound B increase the level of nonsense suppression in the biochemical assay three to four fold over untreated extracts. […]

[4] = system: UGA, UAA or UAG nonsense alleles of luciferase; assay: nonsense suppression in cells transiently transfected with luciferase nonsense alleles in each codon context; type: cell-based; settings: 3 mg/ml, overnight
Method: Cells were transiently transfected with plasmids harboring the UGA, UAA or UAG nonsense alleles of luciferase in each codon context (UGAA, UGAC, UGAG, UGAU, UAGA, UAGC, UAGG, UAGU, UAAA, UAAC, UAAG, and UAAU) then the cells were treated overnight with Compound A, and gentamicin. The following day, the level of suppression was determined by measuring the amount of luminescence produced. The fold suppression above control cells treated with solvent was calculated and is numerically reported.

dystrophin [5] = assay: dystrophin immunostaining in mdx mouse primary skeletal muscle cultures; type: cell-based; settings: 200 μM
Method: FIG. 9. Immunohistochemistry of myotubes from primary cell culture from mdx muscle. The presence of dystrophin was detected by mAb to the COOH-terminus of dystrophin ([…]) followed by a rhodamine-conjugated anti-mouse IgG. […] Little dystrophin was detected in untreated mdx myotubes (right).
Mouse primary skeletal muscle cultures derived from 1-day old mdx mice were prepared as described previously (Barton-Davis et al., 1999, J Clin Invest. 104(4):375-381). Cells were cultured for 10 days in the presence of Compound A (20 μM). Culture medium was replaced every four days and the presence of dystrophin in myoblast cultures was detected by immunostaining as described previously (Barton-Davis et al., 1999, J Clin Invest. 104(4):375-381). A primary monoclonal antibody to the C-terminus of the dystrophin protein (F19A12) was used undiluted and rhodamine conjugated anti-mouse IgG was used as the secondary antibody. The F19A12 antibody will detect the full-length protein produced by suppression of the nonsense codon. Staining was viewed using a Leica DMR micropscope, digital camera, and associated imaging software at the University of Pennsylvania.

dystrophin [6] = assay: dystrophin immunofluorescence of tibialis anterior muscle of mdx mice treated by Alzet osmotic pumps; type: in vivo, mouse; settings: tissue exposure approximately 200 μM, osmotic pump
Method: FIG. 10A-10F. Immunohistochemistry of muscle cross-sections to view dystrophin. […] Muscle from untreated mdx mice (panel E) or from cross sections not treated with primary antibody (panel F) show only minimal staining.
As previously described (Barton-Davis et al., 1999, J Clin Invest. 104(4):375-381), compound was delivered by Alzet osmotic pumps implanted under the skin of anesthetized mice. Two doses of Compound A were administered. Gentamicin served as a positive control and pumps filled with solvent only served as the negative control. Pumps were loaded with appropriate compound such that the calculated doses to which tissue was exposed were 10 μM and 20 μM. The gentamicin concentration was calculated to achieve tissue exposure of approximately 200 μM. In the initial experiment, mice were treated for 14 days, after which animals were anesthetized with ketamine and exsanguinated. The tibialis anterior (TA) muscle of the experimental animals was then excised, frozen, and used for immunofluorescence analysis of dystrophin incorporation into striated muscle. The presence of dystrophin in TA muscles was detected by immunostaining, as described previously (Barton-Davis et al., 1999, J Clin Invest. 104(4):375-381; see mdx primary cells in Section 7.8 supra).

In the case of gentamicin, the “nonsense suppression activity (luciferase activity from luciferase RNA containing a UGA premature termination codon) above untreated extracts” value [1] was 2 to 3 fold, the “luciferase activity on addition of compound” value [2] was “increased luciferase activity” and the “luciferase activity on addition of compound” value [3] was “increased luciferase activity”. For the same substance, the “fold suppression above control cells treated with solvent” value ([4]; context UAAA) was 0.71 fold, the “fold suppression above control cells treated with solvent” value ([4]; context UAAC) was 2.32 fold and the “fold suppression above control cells treated with solvent” value ([4]; context UAAG) was 0.01 fold. For the same substance, the “fold suppression above control cells treated with solvent” value ([4]; context UAAU) was 0.92 fold, the “fold suppression above control cells treated with solvent” value ([4]; context UAGA) was 1.31 fold and the “fold suppression above control cells treated with solvent” value ([4]; context UAGC) was 2.16 fold. For the same substance, the “fold suppression above control cells treated with solvent” value ([4]; context UAGG) was 0.64 fold, the “fold suppression above control cells treated with solvent” value ([4]; context UAGU) was 0.54 fold and the “fold suppression above control cells treated with solvent” value ([4]; context UGAA) was 0.76 fold. For the same substance, the “fold suppression above control cells treated with solvent” value ([4]; context UGAC) was 1.91 fold, the “fold suppression above control cells treated with solvent” value ([4]; context UGAG) was 0.45 fold and the “fold suppression above control cells treated with solvent” value ([4]; context UGAU) was 6.74 fold. For the same substance, the “presence of full-length dystrophin in myotubes (immunostaining, C-terminus antibody)” value (dystrophin [5]) was “full-length dystrophin protein is produced and localized to the muscle myotubes; also recorded: Dystrophin was present” and the “dystrophin in TA muscle (immunostaining)” value (dystrophin [6]) was “positive staining for dystrophin”.
